Assay: xn = mol fraction of the nth substance listed
Conditions: Fluid (supercritical or subcritical phases), Vibrating tube method

c1ccc2ccccc2c1 [naphthalene] + O=C=O
Conditions | mass density [kg/m3]
328.08 K, 11734 kPa, x1 = 0.0065 | 526.75
328.08 K, 11815 kPa, x1 = 0.0065 | 533.03
328.08 K, 11937 kPa, x1 = 0.0065 | 541.87
328.08 K, 12028 kPa, x1 = 0.0065 | 548.44
328.08 K, 12127 kPa, x1 = 0.0065 | 555.07
328.08 K, 12334 kPa, x1 = 0.0065 | 568.49
328.08 K, 12646 kPa, x1 = 0.0065 | 586.46
328.08 K, 13208 kPa, x1 = 0.0065 | 613.74
328.08 K, 13824 kPa, x1 = 0.0065 | 638.32
328.08 K, 14520 kPa, x1 = 0.0065 | 661.29
328.08 K, 15410 kPa, x1 = 0.0065 | 685.64
328.08 K, 16319 kPa, x1 = 0.0065 | 706.24
328.08 K, 17226 kPa, x1 = 0.0065 | 723.77
328.08 K, 18128 kPa, x1 = 0.0065 | 739.05
328.08 K, 19046 kPa, x1 = 0.0065 | 752.91
328.08 K, 20020 kPa, x1 = 0.0065 | 766.16
328.08 K, 21002 kPa, x1 = 0.0065 | 778.22
328.08 K, 21995 kPa, x1 = 0.0065 | 789.31
328.08 K, 22871 kPa, x1 = 0.0065 | 798.48
328.08 K, 23424 kPa, x1 = 0.0065 | 803.93
328.1 K, 10952 kPa, x1 = 0.0038 | 442.37
328.1 K, 11010 kPa, x1 = 0.0038 | 448.13
328.1 K, 11054 kPa, x1 = 0.0038 | 452.8
328.1 K, 11219 kPa, x1 = 0.0038 | 468.8
328.1 K, 11363 kPa, x1 = 0.0038 | 482.43
328.1 K, 11517 kPa, x1 = 0.0038 | 495.77
328.1 K, 11649 kPa, x1 = 0.0038 | 507.25
328.1 K, 11832 kPa, x1 = 0.0038 | 521.74
328.1 K, 11972 kPa, x1 = 0.0038 | 532.31
328.1 K, 12088 kPa, x1 = 0.0038 | 540.71
328.1 K, 12322 kPa, x1 = 0.0038 | 556.51
328.1 K, 12538 kPa, x1 = 0.0038 | 569.79
328.1 K, 12706 kPa, x1 = 0.0038 | 579.47
328.1 K, 12941 kPa, x1 = 0.0038 | 591.84
328.1 K, 13117 kPa, x1 = 0.0038 | 600.49
328.1 K, 13376 kPa, x1 = 0.0038 | 612.23
328.1 K, 13618 kPa, x1 = 0.0038 | 622.37
328.1 K, 13925 kPa, x1 = 0.0038 | 634.21
328.1 K, 14240 kPa, x1 = 0.0038 | 645.33
328.1 K, 14511 kPa, x1 = 0.0038 | 654.12
328.1 K, 14850 kPa, x1 = 0.0038 | 664.35
328.1 K, 15299 kPa, x1 = 0.0038 | 676.78
328.1 K, 15816 kPa, x1 = 0.0038 | 689.62
328.1 K, 16314 kPa, x1 = 0.0038 | 700.83
328.1 K, 16845 kPa, x1 = 0.0038 | 711.78
328.1 K, 17403 kPa, x1 = 0.0038 | 722.35
328.1 K, 18014 kPa, x1 = 0.0038 | 732.96
328.1 K, 18738 kPa, x1 = 0.0038 | 744.46
328.1 K, 19499 kPa, x1 = 0.0038 | 755.49
328.1 K, 20377 kPa, x1 = 0.0038 | 767.2
328.1 K, 21134 kPa, x1 = 0.0038 | 776.5
328.1 K, 22132 kPa, x1 = 0.0038 | 787.85
328.1 K, 23017 kPa, x1 = 0.0038 | 797.14
328.1 K, 24029 kPa, x1 = 0.0038 | 806.95
328.1 K, 25024 kPa, x1 = 0.0038 | 815.98
328.11 K, 15028 kPa, x1 = 0.0214 | 725.95
328.11 K, 15923 kPa, x1 = 0.0214 | 742.34
328.11 K, 17035 kPa, x1 = 0.0214 | 759.59
328.11 K, 18008 kPa, x1 = 0.0214 | 773.1
328.11 K, 19015 kPa, x1 = 0.0214 | 785.68
328.11 K, 20044 kPa, x1 = 0.0214 | 797.24
328.11 K, 21022 kPa, x1 = 0.0214 | 807.22
328.11 K, 22000 kPa, x1 = 0.0214 | 816.43
328.11 K, 23011 kPa, x1 = 0.0214 | 825.23
328.11 K, 24023 kPa, x1 = 0.0214 | 833.49
332.93 K, 18103 kPa, x1 = 0.0198 | 740.17
332.93 K, 19004 kPa, x1 = 0.0198 | 753.43
332.93 K, 20061 kPa, x1 = 0.0198 | 767.37
332.93 K, 21067 kPa, x1 = 0.0198 | 779.34
332.93 K, 22050 kPa, x1 = 0.0198 | 789.99
332.93 K, 23026 kPa, x1 = 0.0198 | 799.71
332.93 K, 23949 kPa, x1 = 0.0198 | 808.29
332.93 K, 24971 kPa, x1 = 0.0198 | 817.26
332.95 K, 12055 kPa, x1 = 0.0049 | 468.83
332.95 K, 13050 kPa, x1 = 0.0049 | 535.86
332.95 K, 14011 kPa, x1 = 0.0049 | 584.76
332.95 K, 14979 kPa, x1 = 0.0049 | 622.27
332.95 K, 16026 kPa, x1 = 0.0049 | 654.27
332.95 K, 17024 kPa, x1 = 0.0049 | 679.08
332.95 K, 18017 kPa, x1 = 0.0049 | 699.78
332.95 K, 18994 kPa, x1 = 0.0049 | 717.43
332.95 K, 20008 kPa, x1 = 0.0049 | 733.55
332.95 K, 21018 kPa, x1 = 0.0049 | 747.87
332.95 K, 22004 kPa, x1 = 0.0049 | 760.51
